Measured values: the supplement of paper PMC11208160

Test: recombinant UMI read abundance after kanamycin selection (control-corrected) (log10(CPM+1)); higher = more efficient recombination; extreme values may be limits of the assay; sequences stand for … in AGTGCAGAGAAAATCGGCCAGTTTTCTCTGCCTGCAGTCCGCATGCCGTGGGACCCCTTGGGTTCTAACCTGTTGCCTAGATTTATGCAGCGGACTGCCTTTCTCCCAAAGTGATAAACCGG…AGGTTGGTTTCACT; site = the 11-nt donor
Method in brief: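 In a pooled Escherichia coli screen for the IS621 bridge recombinase, donor and donor-binding-loop pairs were each placed with a 12-nt UMI on a plasmid bearing a promoterless kanamycin gene. This library was co-electroporated with a target plasmid encoding a fixed target and T7-inducible recombinase, and cells were plated either on IPTG (0.07 mM) plus kanamycin or without selection, in two replicates each. Recombinant UMIs were PCR-amplified across the donor–target junction and sequenced, and counts were converted to CPM, averaged over replicates, scaled by control-derived factors and reported as log10(CPM+1).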
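Note: IS621 bridge recombinase in Escherichia coli cells against a fixed T5 target plasmid.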

Sequence	recombinant UMI read abundance (log10)
ATCGCGTCATGGACCGGTTTTCCCGGTAATCCGTATTTGAA (site ATCGCGTCTTT)	2.01
ATCGTGCCATGGACCGGTTTTCCCGGTAATCCGTATTTGTT (site ATCGTGCCTAA)	0.0076
ATCTAAACATGGACCGGTTTTCCCGGTAATCCGTATTTGAC (site ATCTAAACTGT)	2.72
ATCTAAACATGGACCGGTTTTCCCGGTAATCCGTATTTGAC (site ATCTACACTGT)	0.25
ATCTAAACATGGACCGGTTTTCCCGGTAATCCGTATTTGAC (site ATCTAGACTGT)	0
ATCTAAACATGGACCGGTTTTCCCGGTAATCCGTATTTGAC (site ATCTATACTGT)	0.00453
ATCTACACATGGACCGGTTTTCCCGGTAATCCGTATTTGAC (site ATCTAAACTGT)	1.21
ATCTACACATGGACCGGTTTTCCCGGTAATCCGTATTTGAC (site ATCTACACTGT)	2.83
ATCTACACATGGACCGGTTTTCCCGGTAATCCGTATTTGAC (site ATCTAGACTGT)	0
ATCTACACATGGACCGGTTTTCCCGGTAATCCGTATTTGAC (site ATCTATACTGT)	0.824
ATCTAGACATGGACCGGTTTTCCCGGTAATCCGTATTTGAG (site ATCTAGACTCT)	1.31
ATCTAGGCATGGACCGGTTTTCCCGGTAATCCGTATTTGGC (site ATATAGGCTGC)	0
ATCTAGGCATGGACCGGTTTTCCCGGTAATCCGTATTTGGC (site ATCTAGGCTGC)	0
ATCTAGGCATGGACCGGTTTTCCCGGTAATCCGTATTTGGC (site ATGTAGGCTGC)	0
ATCTAGGCATGGACCGGTTTTCCCGGTAATCCGTATTTGGC (site ATTTAGGCTGC)	0
ATCTATACATGGACCGGTTTTCCCGGTAATCCGTATTTGAG (site ATCTATACTAT)	0.478
ATCTATACATGGACCGGTTTTCCCGGTAATCCGTATTTGAG (site ATCTATACTCT)	1.31
ATCTATACATGGACCGGTTTTCCCGGTAATCCGTATTTGAG (site ATCTATACTGT)	0
ATCTATACATGGACCGGTTTTCCCGGTAATCCGTATTTGAG (site ATCTATACTTT)	0.0268

Sequence	recombinant UMI read abundance (log10)
ATCTATACATGGACCGGTTTTCCCGGTAATCCGTATTTGGC (site ATCTATACTGA)	1.09
ATCTATACATGGACCGGTTTTCCCGGTAATCCGTATTTGGC (site ATCTATACTGC)	2.23
ATCTATACATGGACCGGTTTTCCCGGTAATCCGTATTTGGC (site ATCTATACTGG)	0
ATCTATACATGGACCGGTTTTCCCGGTAATCCGTATTTGGC (site ATCTATACTGT)	2.09
ATCTGTACATGGACCGGTTTTCCCGGTAATCCGTATTTGAC (site ATCTATACTGT)	0
ATCTGTACATGGACCGGTTTTCCCGGTAATCCGTATTTGAC (site ATCTCTACTGT)	0
ATCTGTACATGGACCGGTTTTCCCGGTAATCCGTATTTGAC (site ATCTGTACTGT)	1.31
ATCTGTACATGGACCGGTTTTCCCGGTAATCCGTATTTGAC (site ATCTTTACTGT)	0
ATCTGTCCATGGACCGGTTTTCCCGGTAATCCGTATTTGAT (site ATCTGTCCTAT)	0.0326
ATGAAGGCATGGACCGGTTTTCCCGGTAATCCGTATTTGCA (site AGGAAGACTTG)	0.763
ATGAAGGCATGGACCGGTTTTCCCGGTAATCCGTATTTGCA (site ATGAAGGCTTG)	2.91
ATGACACCATGGACCGGTTTTCCCGGTAATCCGTATTTGGT (site ATGACACCTAC)	0.0397
ATGATCCCATGGACCGGTTTTCCCGGTAATCCGTATTTGCC (site ATGATCCCTGG)	0
ATGCACGCATGGACCGGTTTTCCCGGTAATCCGTATTTGGG (site AAGCACGCTCC)	0.017
ATGCACGCATGGACCGGTTTTCCCGGTAATCCGTATTTGGG (site ACGCACGCTCC)	0.0179
ATGCACGCATGGACCGGTTTTCCCGGTAATCCGTATTTGGG (site AGGCACGCTCC)	0.0274
ATGCACGCATGGACCGGTTTTCCCGGTAATCCGTATTTGGG (site ATGCACGCTCC)	0.239
ATGCAGCCATGGACCGGTTTTCCCGGTAATCCGTATTTGAG (site ATGCAGCCTCT)	0.00247
ATGCCCGCATGGACCGGTTTTCCCGGTAATCCGTATTTGCA (site ATGCCCGCTTG)	2.01

Sequence	recombinant UMI read abundance (log10)
ATGCCGACATGGACCGGTTTTCCCGGTAATCCGTATTTGCA (site ATGCCGACTTG)	1.91
ATGCGAGCATGGACCGGTTTTCCCGGTAATCCGTATTTGCT (site ATGCGAGCTAG)	2.5
ATGCTTGCATGGACCGGTTTTCCCGGTAATCCGTATTTGCT (site ATGCTTGCTAG)	0.679
ATGGAAACATGGACCGGTTTTCCCGGTAATCCGTATTTGCA (site ATGGAAACTTG)	2.32
ATGGAAACATGGACCGGTTTTCCCGGTAATCCGTATTTGCA (site CTGGAAACTTG)	1.6
ATGGAAACATGGACCGGTTTTCCCGGTAATCCGTATTTGCA (site GTGGAAACTTG)	0
ATGGAAACATGGACCGGTTTTCCCGGTAATCCGTATTTGCA (site TTGGAAACTTG)	0.684
ATGGCATCATGGACCGGTTTTCCCGGTAATCCGTATTTGCG (site ATGGCATCTCG)	2.06
ATGGCATCATGGACCGGTTTTCCCGGTAATCCGTATTTGCT (site ATGGCATCTAG)	1.83
ATGGCCGCATGGACCGGTTTTCCCGGTAATCCGTATTTGGC (site ATGGCCGCTGC)	2.53
ATGGTCCCATGGACCGGTTTTCCCGGTAATCCGTATTTGAC (site ATGGTCCCTGT)	1.87
ATGGTCGCATGGACCGGTTTTCCCGGTAATCCGTATTTGAC (site ATGGTCGCTGT)	3.13
ATGTACACATGGACCGGTTTTCCCGGTAATCCGTATTTGAG (site ATGTACACTCT)	1.6
ATGTAGGCATGGACCGGTTTTCCCGGTAATCCGTATTTGGT (site ATGTAGGCTAC)	1.27
ATGTAGGCATGGACCGGTTTTCCCGGTAATCCGTATTTGGT (site ATGTAGGCTCC)	0.0125
ATGTAGGCATGGACCGGTTTTCCCGGTAATCCGTATTTGGT (site ATGTAGGCTGC)	1.73
ATGTAGGCATGGACCGGTTTTCCCGGTAATCCGTATTTGGT (site ATGTAGGCTTC)	0.0176
ATGTCGCCATGGACCGGTTTTCCCGGTAATCCGTATTTGCC (site ATGTCGCCTGG)	0
ATGTCGGCATGGACCGGTTTTCCCGGTAATCCGTATTTGTC (site ATGTCGGCTGA)	2.23
